# “Also recorded” adds a separate entry of the source.
# Legend:
# mouse TRPM5 = target: T1, mouse TRPM5 (Mus musculus, UniProt Q9JJH7); test: Mouse TRPM5 membrane potential dye assay in transfected HEK293 cells; format: cell-based; conditions: for change in membrane potential in mouse TRPM5-expressing HEK293 cells: agonist of an expressed receptor or Ca2+ ionophore, dye R-8034; for change in membrane potential in mouse TRPM5 cells not transfected with the agonist's receptor: unrelated agonist control
# T1 construct: expressed in transfected cells; host or cells: HEK293, in some experiments co-transfected with the AT1 or H1 receptor or stably expressing mT2R5 and Galpha15
# T1 sequence (Q9JJH7 1-1158): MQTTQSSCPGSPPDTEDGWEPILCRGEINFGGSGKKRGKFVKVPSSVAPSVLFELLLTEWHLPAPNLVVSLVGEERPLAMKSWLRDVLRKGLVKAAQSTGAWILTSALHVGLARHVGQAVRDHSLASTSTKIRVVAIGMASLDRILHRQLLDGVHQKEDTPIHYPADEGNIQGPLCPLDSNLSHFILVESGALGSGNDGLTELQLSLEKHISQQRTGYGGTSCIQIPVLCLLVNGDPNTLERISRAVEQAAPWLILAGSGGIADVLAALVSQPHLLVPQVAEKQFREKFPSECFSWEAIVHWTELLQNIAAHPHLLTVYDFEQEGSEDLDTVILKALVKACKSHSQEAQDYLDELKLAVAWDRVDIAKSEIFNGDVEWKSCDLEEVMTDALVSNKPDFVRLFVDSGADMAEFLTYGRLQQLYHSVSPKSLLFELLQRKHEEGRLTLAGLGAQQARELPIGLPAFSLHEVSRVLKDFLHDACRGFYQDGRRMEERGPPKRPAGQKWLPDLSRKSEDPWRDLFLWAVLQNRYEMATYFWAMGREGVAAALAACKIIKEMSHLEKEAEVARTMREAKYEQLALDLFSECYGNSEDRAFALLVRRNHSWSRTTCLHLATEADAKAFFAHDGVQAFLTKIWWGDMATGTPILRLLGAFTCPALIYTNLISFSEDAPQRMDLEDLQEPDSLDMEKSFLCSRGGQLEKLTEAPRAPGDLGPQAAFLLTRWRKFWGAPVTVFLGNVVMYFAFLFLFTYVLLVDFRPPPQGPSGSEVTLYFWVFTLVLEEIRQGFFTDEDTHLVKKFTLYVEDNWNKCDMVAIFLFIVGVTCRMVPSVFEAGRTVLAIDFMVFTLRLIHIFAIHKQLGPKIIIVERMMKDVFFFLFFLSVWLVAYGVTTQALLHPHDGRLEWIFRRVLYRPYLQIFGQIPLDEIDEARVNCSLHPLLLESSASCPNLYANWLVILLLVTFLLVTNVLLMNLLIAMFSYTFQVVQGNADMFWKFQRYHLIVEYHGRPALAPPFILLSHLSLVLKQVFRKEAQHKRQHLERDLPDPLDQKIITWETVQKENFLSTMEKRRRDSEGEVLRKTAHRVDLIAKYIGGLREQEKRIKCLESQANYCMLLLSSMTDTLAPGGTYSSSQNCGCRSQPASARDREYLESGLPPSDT
# Description: (§1) HEK-293 cells (about 50-70% confluency) contained in 10 cm dishes are transfected with 5 μg of TRPM5 DNA and pcDNA3 and 2 μg of RFP plasmids using TransH293.
# (§2) After 24 hours, the cells are split into 384-well plates at ˜50,000 cells/well.
# (§3) At 48 hours post-transfection the cells are loaded with membrane potential dyes in HBSS for 60 minutes at room temperature.
# This experiment contained in FIG. 8 compares mTRPM5 responses to the calcium ionophore ionomycin and various GPCR agonists. As shown in the left top panel HEK293 cells were transfected with a plasmid encoding mouse TRPM5 (red trace) or a control plasmid (pUC; blue trace). 48 hours later cells were loaded with a membrane potential dye (R-8034; Molecular Devices Corporation).
# This experiment contained in FIG. 9 compares hTRPM5 and mTRPM5 responses to GPCR agonist compounds. As shown in the left panel HEK293 cells stably expressing the cycloheximide bitter receptor mT2R5 and the promiscuous G protein G[…]15 were transfected with a plasmid encoding for mouse TRPM05 or a control plasmid (pUC). 48 hours later cells were loaded with a membrane potential dye (R-8034; Molecular Devices Corporation).
# hTRPM5 = target: T2, hTRPM5 (Homo sapiens, UniProt Q9NZQ8); test: hTRPM5 membrane potential dye FLIPR assay in HEK-293 cells (transient or stable clone); format: cell-based; conditions: for change in membrane potential in hTRPM5-expressing HEK293 cells: agonist of an expressed receptor (endogenous muscarinic, transfected H1 or AT1) or Ca2+ ionophore, dye R-8034; for dependence of agonist-induced change in membrane potential on extracellular Na+: NaCl versus NMDG replacement; for change in membrane potential in hTRPM5-expressing cells not transfected with the agonist's receptor: unrelated agonist control
# T2 construct: expressed in transfected cells
# T2 sequence (Q9NZQ8 1-1165): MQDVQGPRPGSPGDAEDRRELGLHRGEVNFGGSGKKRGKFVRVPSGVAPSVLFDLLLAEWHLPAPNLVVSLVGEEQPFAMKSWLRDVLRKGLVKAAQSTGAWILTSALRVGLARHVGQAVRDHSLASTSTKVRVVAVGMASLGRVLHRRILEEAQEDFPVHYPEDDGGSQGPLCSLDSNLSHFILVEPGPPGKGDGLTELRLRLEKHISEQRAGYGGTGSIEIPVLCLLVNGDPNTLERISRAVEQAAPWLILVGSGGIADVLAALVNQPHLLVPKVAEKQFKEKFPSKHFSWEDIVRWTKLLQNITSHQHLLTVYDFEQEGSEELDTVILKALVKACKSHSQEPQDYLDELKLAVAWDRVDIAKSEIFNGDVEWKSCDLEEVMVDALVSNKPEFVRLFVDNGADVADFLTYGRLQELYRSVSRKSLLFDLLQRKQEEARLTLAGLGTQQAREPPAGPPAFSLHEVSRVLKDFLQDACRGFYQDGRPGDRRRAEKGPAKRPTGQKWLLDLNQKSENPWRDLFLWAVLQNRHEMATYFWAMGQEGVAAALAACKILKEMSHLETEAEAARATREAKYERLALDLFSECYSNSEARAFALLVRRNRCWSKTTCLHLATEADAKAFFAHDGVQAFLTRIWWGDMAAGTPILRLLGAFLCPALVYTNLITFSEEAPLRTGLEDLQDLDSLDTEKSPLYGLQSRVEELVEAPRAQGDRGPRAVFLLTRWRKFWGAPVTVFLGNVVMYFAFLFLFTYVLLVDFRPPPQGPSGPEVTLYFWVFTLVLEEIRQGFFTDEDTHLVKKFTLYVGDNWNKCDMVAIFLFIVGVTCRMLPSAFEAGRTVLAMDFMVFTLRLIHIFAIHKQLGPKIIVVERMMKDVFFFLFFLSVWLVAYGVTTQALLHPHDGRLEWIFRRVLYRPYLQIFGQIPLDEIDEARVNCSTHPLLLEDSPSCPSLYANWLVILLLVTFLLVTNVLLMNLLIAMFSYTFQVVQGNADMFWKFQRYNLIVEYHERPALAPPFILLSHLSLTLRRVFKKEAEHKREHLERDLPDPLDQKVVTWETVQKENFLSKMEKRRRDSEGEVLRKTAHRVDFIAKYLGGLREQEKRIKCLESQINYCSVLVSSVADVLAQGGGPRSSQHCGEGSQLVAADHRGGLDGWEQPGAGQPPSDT
# Description: as §1, §2, §3
# Compounds plates are prepared in HBSS.
# HEK-293 cells transfected with TRPM5 nucleic acid sequence containing plasmid that comprises neo marker and stable cell clones are selected using neomycin.
# Screened clones are screened using membrane potential dyes and FLIPR, for a GPCR-induced change in membrane potential.
# This experiment is contained in FIG. 10. In the experiment HEK293 cells were transfected with a plasmid encoding hTRPM5 in pcDNA3.Neo. 48 hours later cells were put in selection media (500 ug/ml neomycin) and stable clones were selected and expanded. Clone #51 was further characterized for carbachol-induced hTRPM5 activation. Cells were loaded with a membrane potential dye (R-8034; Molecular Devices Corporation). […]
# Ca^2+ mobilization = test: Ca2+ mobilization with Ca2+-sensitive dye (Fluo3) in HEK293 cells; format: cell-based, human
# Description: (§4) As shown in the Left Panel: HEK293 cells were transfected with a plasmid encoding hTRPM5. 48 hours later cells were loaded with either a membrane potential dye (Molecular Devices Corporation; R-8034 or DisBAC) or a Ca^2+-sensitive dye (Fluo3). […] As shown in the Right Panel: HEK293 cells were transfected with a control plasmid (pUC) and treated as described above.
# This experiment the results of which are contained in FIG. 7 compared TRPM5 responses to the Ca++ ionophore ionomycin. As shown in the left panel HEK293 cells were transfected with a plasmid encoding hTRPM5. 48 hours later cells were loaded with either a membrane potential dye (R-8034; Molecular Devices Corporation) or a Ca^2+-sensitive dye (Fluo3).
# (§5) In this experiment the results of which are contained in FIG. 11 a library of ˜15,000 compounds (10 uM) was screened for hTRPM5 modulators using clone #51 (described in FIG. 10). In our initial screening conditions hTRPM5 was maximally stimulated with carbachol, using concentrations of 50 uM to 100 uM.
# [1] = system: HEK293 cells lacking hTRPM5; test: Membrane potential dye assay in HEK293 cells lacking hTRPM5 (control plasmid pUC); format: cell-based, human; conditions: agonist stimulation
# Description: as §4
# This experiment the results of which are shown in FIG. 5 evaluated TRPM5 induced changes in membrane potential. As shown in the left panel HEK293 cells were transfected with plasmids encoding the H1 histamine receptor with (red trace) or without (blue trace) a plasmid encoding hTRPM5. 48 hours later cells were loaded with a membrane potential dye (R-8034; Molecular Devices Corporation).
# as §5
compound,measurement,setting,value
CNc1ccc2oc(C[C@H]3O[C@@]4(CC[C@H]3C)O[C@H]([C@H](C)C(=O)c3ccc[nH]3)[C@H](C)C[C@H]4C)nc2c1C(=O)O [A-23187],change in membrane potential in mouse TRPM5-expressing HEK293 cells,mouse TRPM5,TRPM5-dependent changes in membrane potential
same,change in membrane potential in hTRPM5-expressing HEK293 cells,hTRPM5,TRPM5-dependent changes in membrane potential
C[N+](C)(C)CCOC(N)=O [carbachol],Ca^2+ response in control plasmid (pUC) transfected HEK293 cells,Ca^2+ mobilization,a significant increase in Ca^2+ is triggered
same,Ca^2+ response in hTRPM5-transfected HEK293 cells,Ca^2+ mobilization,leads to Ca^2+ mobilization
same,change in membrane potential in mouse TRPM5-expressing HEK293 cells,mouse TRPM5,dose-dependent increase in membrane potential
same,hTRPM5 activity produced,hTRPM5; 2 um carbachol,10-25%
same,dependence of agonist-induced change in membrane potential on extracellular Na+,hTRPM5,only observed in the presence of NaCl
same,change in membrane potential in hTRPM5-expressing HEK293 cells,hTRPM5,concomitant increase in membrane potential; also recorded: dose-dependent increase in membrane potential; also recorded: dose-dependent increase in membrane potential that is much greater than what is seen in cells not expressing hTRPM5
same,change in membrane potential in cells lacking hTRPM5,[1],no change in membrane potential is observed; also recorded: no significant change in membrane potential
C[C@@H]1C[C@@H]([C@H](O)CC2CC(=O)NC(=O)C2)C(=O)[C@@H](C)C1 [cycloheximide],change in membrane potential in mT2R5 / G15 stable HEK293 cells transfected with mouse TRPM5,mouse TRPM5; versus pUC control,dose-dependent increase in membrane potential that was much greater than what is seen in cells not expressing mouse TRPM5
same,change in membrane potential in mT2R05 / G15 stable HEK293 cells transfected with human TRPM5,hTRPM5; versus pUC control,dose-dependent increase in membrane potential that is much greater than what is seen in cells not expressing human TRPM5
NCCc1c[nH]cn1 [histamine],change in membrane potential in mouse TRPM5-expressing HEK293 cells,mouse TRPM5,dose-dependent increase in membrane potential
same,change in membrane potential in mouse TRPM5 cells not transfected with the agonist's receptor,mouse TRPM5,did not have any effect
same,dependence of agonist-induced change in membrane potential on extracellular Na+,hTRPM5,only observed in the presence of NaCl
same,change in membrane potential in hTRPM5-expressing HEK293 cells,hTRPM5,dose-dependent increase in membrane potential
same,change in membrane potential in hTRPM5-expressing cells not transfected with the agonist's receptor,hTRPM5,has no effect
same,change in membrane potential in cells lacking hTRPM5,[1],no significant change in membrane potential
C[C@H](CCC(=O)O)C[C@H](C)C[C@H](C)C(=O)/C=C(\O)[C@H](C)C[C@H](C)C/C=C/[C@@H](C)[C@@H](O)[C@@H](C)[C@@H](O)C[C@@H]1CC[C@@](C)([C@H]2CC[C@@](C)([C@@H](C)O)O2)O1 [ionomycin],Ca^2+ response in hTRPM5-transfected HEK293 cells,Ca^2+ mobilization,leads to Ca^2+ influx
same,change in membrane potential in mouse TRPM5-expressing HEK293 cells,mouse TRPM5,dose-dependent increase in membrane potential that is significantly greater in mouse-TRPM5 transfected cells; also recorded: TRPM5-dependent changes in membrane potential
same,change in membrane potential in hTRPM5-expressing HEK293 cells,hTRPM5,concomitant increase in membrane potential; also recorded: dose-dependent increase in membrane potential that is noticeably greater in hTRPM5-expressing cells; also recorded: TRPM5-dependent changes in membrane potential
angiotensin II (DRVYIHPF) [AT1 angiotensin II receptor agonist],change in membrane potential in mouse TRPM5-expressing HEK293 cells,mouse TRPM5,dose-dependent increase in membrane potential
same,change in membrane potential in mouse TRPM5 cells not transfected with the agonist's receptor,mouse TRPM5,had no effect
same,dependence of agonist-induced change in membrane potential on extracellular Na+,hTRPM5,only observed in the presence of NaCl
same,change in membrane potential in hTRPM5-expressing HEK293 cells,hTRPM5,dose-dependent increase in membrane potential
same,change in membrane potential in hTRPM5-expressing cells not transfected with the agonist's receptor,hTRPM5,did not have any effect
same,change in membrane potential in cells lacking hTRPM5,[1],no significant change in membrane potential

# — patent publication US20070161052A1, “TRPM5 based assays and the use thereof for the identification of modulators of sweet, bitter or umami (savory) taste” (SENOMYX, INC., priority 2005, published 2007)
